This assay addresses T1, rat α1B+α2b+β1b channels (N-type channels) (Rattus norvegicus, UniProt Q02294).
T1 construct: expressed in transfected cells
Briefly: Whole cell patch recordings, N-type calcium channel block (Examples 1 and 4). The class given is cell-based. Particulars: block of N-type calcium channels, HEK cells, 5 mM barium as charge carrier. The protocol: Antagonist activity was measured using whole cell patch recordings on human embryonic kidney cells either stably or transiently expressing rat α1B+α2b+β1b channels (N-type channels) with 5 mM barium as a charge carrier.
For transient expression, host cells, such as human embryonic kidney cells, HEK 293 (ATCC# CRL 1573) were grown in standard DMEM medium supplemented with 2 mM glutamine and 10% fetal bovine serum. HEK 293 cells were transfected by a standard calcium-phosphate-DNA coprecipitation method using the rat α1B+β1b+α2δ N-type calcium channel subunits in a vertebrate expression vector (for example, see Current Protocols in Molecular Biologyl ).
After an incubation period of from 24 to 72 hrs the culture medium was removed and replaced with external recording solution (see below). Whole cell patch clamp experiments were performed using an Axopatch 200B amplifier (Axon Instruments, Burlingame, Calif.) linked to an IBM compatible personal computer equipped with pCLAMP software. Borosilicate glass patch pipettes (Sutter Instrument Co., Novato, Calif.) were polished (Microforge, Narishige, Japan) to a resistance of about 4 MΩ when filled with cesium methanesulfonate internal solution (composition in MM: 109 CsCH3SO4, 4 MgCl2, 9 EGTA, 9 HEPES, pH 7.2). Cells were bathed in 5 mM Ba^++ (in mM: 5 BaCl2, 1 MgCl2, 10 HEPES, 40 tetraethylammonium chloride, 10 glucose, 87.5 CsCl pH 7.2). Current data shown were elicited by a train of 100 ms test pulses at 0.066 Hz from −100 mV and/or −80 mV to various potentials (min. −20 mV, max. +30 mV). Drugs were perfused directly into the vicinity of the cells using a microperfusion system.
Normalized dose-response curves were fit (Sigmaplot 4.0, SPSS Inc., Chicago, Ill.) by the Hill equation to determine IC50 values. Steady-state inactivation curves were plotted as the normalized test pulse amplitude following 5 s inactivating prepulses at +10 mV increments. Inactivation curves were fit (Sigmaplot 4.0) with the Boltzman equation, Ipeak (normalized)=1/(1+exp((V−Vh)z/25.6)), where V and Vh are the conditioning and half inactivation potentials, respectively, and z is the slope factor.

pIC50: −log10 of the molar value.

The record followed here is patent US7064128B2, “Preferentially substituted calcium channel blockers” (NeuroMed Technologies, Inc., priority 1998, dated 2006).

T1 sequence (Q02294 whole entry): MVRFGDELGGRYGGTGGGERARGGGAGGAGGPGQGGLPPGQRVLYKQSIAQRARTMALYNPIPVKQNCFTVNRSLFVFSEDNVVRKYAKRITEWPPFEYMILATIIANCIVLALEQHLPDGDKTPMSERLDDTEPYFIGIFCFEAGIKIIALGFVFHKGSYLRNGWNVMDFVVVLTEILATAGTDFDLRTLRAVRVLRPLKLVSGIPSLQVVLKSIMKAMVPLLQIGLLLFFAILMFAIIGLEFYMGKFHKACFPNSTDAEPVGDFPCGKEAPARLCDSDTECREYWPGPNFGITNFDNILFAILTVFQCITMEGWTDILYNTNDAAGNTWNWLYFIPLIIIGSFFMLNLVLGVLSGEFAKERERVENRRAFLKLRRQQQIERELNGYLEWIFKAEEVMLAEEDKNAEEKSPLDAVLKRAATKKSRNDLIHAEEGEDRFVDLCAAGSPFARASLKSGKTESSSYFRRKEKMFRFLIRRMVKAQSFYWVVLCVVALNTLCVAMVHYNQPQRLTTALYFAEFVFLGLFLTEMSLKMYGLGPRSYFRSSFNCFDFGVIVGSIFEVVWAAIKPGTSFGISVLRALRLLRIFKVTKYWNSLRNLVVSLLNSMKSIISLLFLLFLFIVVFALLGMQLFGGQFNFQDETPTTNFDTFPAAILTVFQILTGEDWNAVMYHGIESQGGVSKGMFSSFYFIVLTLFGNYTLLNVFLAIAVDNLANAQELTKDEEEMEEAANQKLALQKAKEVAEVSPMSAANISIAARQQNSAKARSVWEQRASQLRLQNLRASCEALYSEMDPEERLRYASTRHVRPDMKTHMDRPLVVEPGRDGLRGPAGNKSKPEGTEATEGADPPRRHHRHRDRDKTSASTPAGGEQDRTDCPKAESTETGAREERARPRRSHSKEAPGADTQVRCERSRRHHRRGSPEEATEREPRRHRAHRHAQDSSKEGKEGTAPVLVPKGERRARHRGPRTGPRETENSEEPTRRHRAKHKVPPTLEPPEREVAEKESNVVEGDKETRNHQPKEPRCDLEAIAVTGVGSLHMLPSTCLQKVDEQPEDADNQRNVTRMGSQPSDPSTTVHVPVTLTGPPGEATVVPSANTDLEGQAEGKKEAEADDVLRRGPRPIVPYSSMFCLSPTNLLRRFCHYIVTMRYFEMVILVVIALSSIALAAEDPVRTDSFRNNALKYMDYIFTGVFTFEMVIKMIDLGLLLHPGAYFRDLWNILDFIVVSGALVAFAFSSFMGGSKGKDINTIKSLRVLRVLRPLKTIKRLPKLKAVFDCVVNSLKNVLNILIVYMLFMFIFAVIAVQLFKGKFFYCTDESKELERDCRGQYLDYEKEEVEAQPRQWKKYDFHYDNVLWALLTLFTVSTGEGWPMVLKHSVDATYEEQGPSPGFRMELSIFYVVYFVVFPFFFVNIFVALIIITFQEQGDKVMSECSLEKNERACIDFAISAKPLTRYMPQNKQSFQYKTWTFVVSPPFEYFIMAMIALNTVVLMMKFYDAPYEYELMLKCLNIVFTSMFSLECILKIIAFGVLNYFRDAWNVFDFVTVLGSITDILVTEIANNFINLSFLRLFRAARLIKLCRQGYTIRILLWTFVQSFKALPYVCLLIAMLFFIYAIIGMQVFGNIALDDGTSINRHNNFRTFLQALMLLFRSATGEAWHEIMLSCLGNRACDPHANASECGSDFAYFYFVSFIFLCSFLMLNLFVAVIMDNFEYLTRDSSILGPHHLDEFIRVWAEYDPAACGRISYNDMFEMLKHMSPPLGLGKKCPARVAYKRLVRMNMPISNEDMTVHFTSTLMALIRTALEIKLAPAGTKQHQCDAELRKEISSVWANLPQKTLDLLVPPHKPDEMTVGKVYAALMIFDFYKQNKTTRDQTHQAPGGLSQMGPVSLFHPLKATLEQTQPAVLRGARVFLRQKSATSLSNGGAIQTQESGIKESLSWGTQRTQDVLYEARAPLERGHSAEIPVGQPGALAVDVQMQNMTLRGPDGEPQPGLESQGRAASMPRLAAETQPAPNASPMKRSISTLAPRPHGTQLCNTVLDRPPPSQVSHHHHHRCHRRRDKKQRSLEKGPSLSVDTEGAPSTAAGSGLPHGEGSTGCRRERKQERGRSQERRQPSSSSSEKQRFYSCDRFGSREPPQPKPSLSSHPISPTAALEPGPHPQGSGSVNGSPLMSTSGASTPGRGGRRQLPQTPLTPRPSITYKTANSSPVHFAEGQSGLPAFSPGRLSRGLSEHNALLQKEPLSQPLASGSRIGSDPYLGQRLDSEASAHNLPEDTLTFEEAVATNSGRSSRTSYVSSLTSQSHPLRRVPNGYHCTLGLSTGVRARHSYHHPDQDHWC
T1 sequence (P54290 25-944 partner limits assumed): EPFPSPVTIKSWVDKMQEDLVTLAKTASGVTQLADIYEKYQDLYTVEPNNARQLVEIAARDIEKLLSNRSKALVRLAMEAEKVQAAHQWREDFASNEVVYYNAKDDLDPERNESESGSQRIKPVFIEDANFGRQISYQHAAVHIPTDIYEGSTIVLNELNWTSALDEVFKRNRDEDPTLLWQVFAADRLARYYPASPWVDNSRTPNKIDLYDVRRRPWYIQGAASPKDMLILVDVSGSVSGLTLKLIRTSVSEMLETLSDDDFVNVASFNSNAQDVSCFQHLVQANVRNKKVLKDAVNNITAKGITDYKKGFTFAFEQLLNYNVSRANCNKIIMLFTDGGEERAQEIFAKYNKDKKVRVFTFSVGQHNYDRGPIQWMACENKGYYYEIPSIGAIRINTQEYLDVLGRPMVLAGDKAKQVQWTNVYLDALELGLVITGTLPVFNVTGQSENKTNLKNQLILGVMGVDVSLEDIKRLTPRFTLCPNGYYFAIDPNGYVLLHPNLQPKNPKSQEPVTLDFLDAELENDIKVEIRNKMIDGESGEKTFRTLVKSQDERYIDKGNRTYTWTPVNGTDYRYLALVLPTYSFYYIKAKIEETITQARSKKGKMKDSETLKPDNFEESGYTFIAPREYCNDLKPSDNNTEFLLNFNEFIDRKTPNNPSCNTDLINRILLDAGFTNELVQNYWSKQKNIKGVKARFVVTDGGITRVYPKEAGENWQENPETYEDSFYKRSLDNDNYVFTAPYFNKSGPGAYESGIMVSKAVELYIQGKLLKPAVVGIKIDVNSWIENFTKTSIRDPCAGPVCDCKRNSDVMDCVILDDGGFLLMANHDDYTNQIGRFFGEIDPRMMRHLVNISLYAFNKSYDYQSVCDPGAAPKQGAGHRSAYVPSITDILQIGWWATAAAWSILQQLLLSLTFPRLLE
T1 sequence (P54290 945-1091 partner limits assumed): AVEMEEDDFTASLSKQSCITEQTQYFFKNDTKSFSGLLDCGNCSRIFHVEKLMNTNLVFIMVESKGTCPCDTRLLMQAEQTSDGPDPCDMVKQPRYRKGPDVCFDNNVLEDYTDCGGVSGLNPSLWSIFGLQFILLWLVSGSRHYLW
T1 sequence (P54283 whole entry partner): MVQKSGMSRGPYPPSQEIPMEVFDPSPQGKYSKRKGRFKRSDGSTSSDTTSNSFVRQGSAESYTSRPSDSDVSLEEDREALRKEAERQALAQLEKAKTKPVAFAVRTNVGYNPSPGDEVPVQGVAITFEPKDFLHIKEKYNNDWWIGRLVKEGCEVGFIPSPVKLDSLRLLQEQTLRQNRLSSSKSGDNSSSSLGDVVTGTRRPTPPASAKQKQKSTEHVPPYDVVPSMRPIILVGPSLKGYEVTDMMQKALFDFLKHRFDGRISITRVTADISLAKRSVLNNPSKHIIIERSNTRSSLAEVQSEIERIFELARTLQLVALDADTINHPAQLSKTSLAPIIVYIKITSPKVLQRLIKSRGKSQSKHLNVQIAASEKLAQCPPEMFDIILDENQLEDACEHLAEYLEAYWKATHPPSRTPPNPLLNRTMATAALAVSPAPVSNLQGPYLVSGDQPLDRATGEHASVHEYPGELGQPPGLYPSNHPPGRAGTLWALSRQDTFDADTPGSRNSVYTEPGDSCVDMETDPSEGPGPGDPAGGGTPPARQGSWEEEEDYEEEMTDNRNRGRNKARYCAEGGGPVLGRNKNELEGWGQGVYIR

On to `c1ccc(CCN2CCN(CCCCCC(c3ccccc3)C3CCCCC3)CC2)cc1` (centres unmarked) [Φ, Cy; CH(CH2)5; N; 2; Φ], for which the pIC50 is 5.51.

As for `O=C(CCCCCC(c1ccccc1)C1CCCCC1)N1CCN(C(c2ccccc2)c2ccccc2)CC1` (centres unmarked) [Φ, Cy; CH(CH2)5CO; N; 0; CHΦ2], the pIC50 was 4.99.

Consider `c1ccc(C(CN2CCN(CC(c3ccccc3)C3CCCCC3)CC2)c2ccccc2)cc1` (centres unmarked) [Φ, Cy; CHCH2; N; 1; CHΦ2], for which the pIC50 was 4.70.

For `c1ccc(C(CN2CCN(CC3CCCCC3)CC2)C2CCCCC2)cc1` (centres unmarked) [Φ, Cy; CHCH2; N; 1; Cy], the pIC50 was 4.69.

As to `c1ccc(CN2CCN(CC(c3ccccc3)C3CCCCC3)CC2)cc1` (centres unmarked) [Φ, Cy; CHCH2; N; 1; Φ], the pIC50 was about 5.30.

For the compound `O=C(C(c1ccccc1)C1CCCCC1)N1CCN(CC(c2ccccc2)c2ccccc2)CC1` (centres unmarked) [Φ, Cy; CHCO; N; 1; CHΦ2], the pIC50 is 4.46.

For `O=C(C(c1ccccc1)C1CCCCC1)N1CCN(CC=Cc2ccccc2)CC1` (centres unmarked) [Φ, Cy; CHCO; N; 1; CH═CHΦ], the pIC50 was 5.23.

In the case of `O=C(C(c1ccccc1)C1CCCCC1)N1CCN(Cc2ccccc2)CC1` (centres unmarked) [Φ, Cy; CHCO; N; 1; Φ], the pIC50 is 4.85.
